Measurements: publication PMC5989765, “The safety, tolerability, and pharmacokinetic profile of GSK2838232, a novel 2nd generation HIV maturation inhibitor, as assessed in healthy subjects” (Pharmacology Research & Perspectives, 2018)
≈ marks a conversion by molar mass, not a printed value. Entries after “also recorded” stand apart in the source; their conditions may differ. Read-outs that look alike come from different tables or passages of the source.

What was measured:
[1] = Study 200912: single dose 100-200 mg, SDD versus nonmicronized API PiB, healthy subjects; type: in vivo, human; conditions: for Cmax / AUC / half-life / Tmax / concentration at 24 h: human, plasma, oral; for Cmax / AUC / half-life / Tmax / concentration at 24 h / CL/F: fasted; for Cmax / AUC / half-life / CL/F: geometric mean (95% CI); for AUC: read-out: AUC(0‐∞); for half-life: read-out: t½ (converted); for Tmax / concentration at 24 h: median (range); for concentration at 24 h: read-out: C24
Source text: This was a double‐blind, randomized, placebo‐controlled, single‐dose escalation study to investigate the safety, tolerability, and PK of higher single doses of GSK2838232 (Part A) and to evaluate the relative bioavailability of the SDD and crystalline Active Pharmaceutical Ingredient (API) of GSK2838232 (Part B) in healthy subjects dosed as PiB.
Part A was originally planned as a double‐blind, randomized, placebo‐controlled, 4‐period, single‐dose escalation design. Subjects were randomized 3:1 to receive GSK2838232 or placebo. Periods 1 and 2 investigated dosing with 200 mg SDD or nonmicronized API. Further planned dosing of RTV‐boosted single doses of 20 mg and 50 mg SDD was not performed due to early termination of the study to evaluate a serious adverse event (SAE) of a cardiovascular nature (see Safety discussion).
Part B was conducted in a separate group of subjects and was not dependent on the results of Part A. This was a randomized, open‐label, 3‐period, crossover design to assess the relative bioavailability of the nonmicronized API PiB versus the original SDD formulation at a 100 mg dose level (Periods 1 and 2). […] Subjects were randomized 1:1 to each dosing sequence.
Blood samples were taken via an indwelling cannula or by direct venipuncture, collected into a di‐potassium ethylenediaminetetraacetic acid (K2 EDTA) tube, and placed on wet ice. Samples were centrifuged at approximately 1500g for 10 minutes at approximately 4°C. Exactly 500 μL of the resulting plasma was transferred into labeled 1.4 mL Matrix TrakMate Tubes containing exactly 500 μL of 50 mmol/L citrate buffer, pH 4.0, and mixed well. When 500 μL of plasma was not able to be transferred, the ratio of plasma to citrate buffer was kept at 1:1. Buffered plasma samples were kept on ice and frozen at −70°C within 1 hour of collection. Plasma samples were analyzed for GSK2838232 using a validated analytical method based on protein precipitation, followed by high performance liquid chromatography with tandem mass spectrometry (HPLC/MS/MS) analysis.
Extracts were analyzed using HPLC (Shimadzu, Nexera, 30 series) and tandem mass spectrometry detection (HPLC‐MS/MS). The mass spectrometer used was an API‐5500 using IonSpray interface (500 V) in positive mode monitoring. The mass transitions were 809.5 to 255.1 and 816.5 to 262.1 for GSK2838232 and [2H7] GSK2838232 (the isotopically labeled internal standard), respectively. The chromatographic conditions utilized a Waters Acquity UPLC BEH C18 column (50 × 2.1 mm, 1.7 μm) with mobile phases consisting of 1 mmol/L ammonium formate:formic acid (100:0.005) (mobile phase A) and acetonitrile:formic acid (100:0.1) (mobile phase B) at a flow rate of 0.6 mL/min, with pump B at 63% held for 2 minutes. The assay was validated to have precision (%RSD) of 0.7%‐6.5% (within‐run) and 1.0%‐5.9% RSD (between‐run) and with accuracy (%bias) of 0.0%‐1.6%. […] The lower limit of quantification (LLQ) was 0.5 ng/mL, using a 50 μL aliquot of K2EDTA acidified plasma. The higher limit of quantification (HLQ) was 500 ng/mL.
The PK parameters were calculated by standard noncompartmental analysis based on actual sampling times using WinNonlin Version 6.3 or higher. Estimation of AUC used the linear up/log down trapezoidal rule.

[2] = Safety and tolerability in healthy subjects across the four Phase I studies; type: in vivo, human
Method: Each one of the four studies described were conducted and completed at a single center in the United States (Parexel International, Baltimore, MD) per the ethical principles of “good clinical practice” (GCP) and the Declaration of Helsinki after obtaining a written informed consent from each subject. The protocols and amendments were approved by Aspire Investigational Review Board (Santee, California, USA).
Other screening assessments included 24‐hour Holter monitoring and baseline echocardiograms.
Nonclinical evaluation in short duration toxicology studies initially gave rise to potential cardiovascular signals which were minimal, appeared sporadically, and were not reproduced in longer term studies. Consequently, there was intensive and extensive cardiovascular monitoring at baseline and post‐dosing, including continuous Holter monitoring and regular cardiac troponin laboratory assessments in these early Phase I studies along with a high degree of vigilance for any findings and/or reported AEs of potential cardiovascular origin.

HIV‐1 = system: HIV‐1; parameters: method as in earlier work; conditions: cited from earlier work
[3] = 20 mg, single 20 mg API PiB, with ritonavir (predosing 10 days), Study 200912
[4] = 100 mg, single 100 mg API PiB, without ritonavir, Study 200912
[5] = 100 mg, single 100 mg SDD PiB, without ritonavir, Study 200912
[6] = 200 mg, single 200 mg API PiB, without ritonavir, Study 200912
[7] = 200 mg, single 200 mg SDD PiB, without ritonavir, Study 200912

CC(C)C1=C2[C@H]3CC[C@@H]4[C@@]5(C)CC[C@H](OC(=O)CC(C)(C)C(=O)O)C(C)(C)[C@@H]5CC[C@@]4(C)[C@]3(C)CC[C@@]2([C@@H](O)CN(CCN(C)C)Cc2ccc(Cl)cc2)CC1=O [GSK2838232]
dose proportionality of exposure ([1]; API, 100 mg to 200 mg single doses, Study 200912): proportional increase in exposure
Cmax [1, 3]: 4.89 ng/mL
AUC [1, 3]: 224 ng·h/mL
half-life [1, 3]: 41.1 h
Tmax [1, 3]: 5.01 h
concentration at 24 h [1, 3]: 2.56 ng/mL
Cmax [1, 4]: 6.15 ng/mL
AUC [1, 4]: 91.7 ng·h/mL
half-life [1, 4]: 12.5 h
Tmax [1, 4]: 3.64 h
concentration at 24 h [1, 4]: 2.02 ng/mL
Cmax [1, 5]: 18.7 ng/mL
AUC [1, 5]: 265 ng·h/mL
half-life [1, 5]: 16.9 h
Tmax [1, 5]: 2.75 h
concentration at 24 h [1, 5]: 3.87 ng/mL
Cmax [1, 6]: 13.6 ng/mL
AUC [1, 6]: 189 ng·h/mL
half-life [1, 6]: 15.9 h
Tmax [1, 6]: 2.76 h
concentration at 24 h [1, 6]: 2.85 ng/mL
Cmax [1, 7]: 29.3 ng/mL
AUC [1, 7]: 381 ng·h/mL
half-life [1, 7]: 16.6 h
Tmax [1, 7]: 1.75 h
concentration at 24 h [1, 7]: 5.18 ng/mL
CL/F ([1]; single 20 mg API PiB, with ritonavir (predosing 10 days), Study 200912): 89.2 (63.3, 126) L/h
CL/F ([1]; single 100 mg API PiB, without ritonavir, Study 200912): 1090 (670, 1774) L/h
CL/F ([1]; single 100 mg SDD PiB, without ritonavir, Study 200912): 378 (256, 559) L/h
CL/F ([1]; single 200 mg API PiB, without ritonavir, Study 200912): 1060 (686, 1638) L/h
CL/F ([1]; single 200 mg SDD PiB, without ritonavir, Study 200912): 525 (399, 690) L/h
dose proportionality of exposure ([1]; single doses 100 mg to 200 mg, SDD formulation, without RTV): less‐than‐proportional increase
cardiovascular toxicities / events related to study drug ([2]; healthy subjects): no cardiovascular toxicities were deemed related to study drug administration; also recorded: none were considered definitively related to GSK2838232
adverse events ([2]; healthy subjects, all dose regimens, up to 250 mg): few mild adverse events (AEs) with similar frequencies to placebo; also recorded: Few adverse events (AEs) were reported across all dose regimens
drug‐related AEs ([2]; healthy subjects, four studies): no clearly identified drug‐related AEs
changes in hematology or clinical chemistry laboratory values, including liver function tests ([2]; healthy subjects, exception one subject with gallstones (not treatment‐related)): no clinically significant changes
AEs assessed with a reasonable likelihood of being drug‐related ([2]; infrequently reported): headache and dizziness
safety and tolerability ([2]; single doses up to 250 mg with 100 mg RTV, repeat doses up to 200 mg with 100 mg RTV for 11 days): good safety and tolerability profile
shift in IC90 with human serum albumin added (HIV‐1; assays to which human serum albumin was added): no significant shift
IC90 in cell‐based assays (termed PA‐IC90, protein‐adjusted 90% inhibitory concentration) (HIV‐1; calculated): 5 ng/mL (≈ 6.18 nM)
IC90 (HIV‐1; calculated, read-out: IC90 in cell‐based assays): 6.4 nM
activity to viruses with key resistance mutations (HIV‐1; panel of viruses): retains activity
